Results reported in US5441941A, “1,2-dihydroellipticines with activity against CNS specific cancer” (The United States of America as represented by the …, priority 1993, dated 1995).

Key:
MALME-3M = assay: NCI in vitro screen, SRB percent growth, Melanoma
SK-MEL-28 = assay: NCI in vitro screen, SRB percent growth, Melanoma
XF 498 = assay: NCI in vitro screen, SRB percent growth, CNS Cancer
ACHN = assay: NCI in vitro screen, SRB percent growth, Renal Cancer
SF-295 = assay: NCI in vitro screen, SRB percent growth, CNS Cancer
SK-MEL-2 = assay: NCI in vitro screen, SRB percent growth, Melanoma
NCI-H460 = assay: NCI in vitro screen, SRB percent growth, Non-Small Cell Lung Cancer
OVCAR-5 = assay: NCI in vitro screen, SRB percent growth, Ovarian Cancer
UACC-62 = assay: NCI in vitro screen, SRB percent growth, Melanoma
M19-MEL = assay: NCI in vitro screen, SRB percent growth, Melanoma
786-0 = assay: cells; settings: Homo sapiens
HL-60 (TB) = assay: NCI in vitro screen, SRB percent growth, Leukemia
SNB-19 = assay: NCI in vitro screen, SRB percent growth, CNS Cancer
OVCAR-8 = assay: NCI in vitro screen, SRB percent growth, Ovarian Cancer
KM20L2 = assay: cells; settings: Homo sapiens
SK-MEL-5 = assay: NCI in vitro screen, SRB percent growth, Melanoma
[1] = Log10 Concentration -7.0, 0.1 µM
[2] = Log10 Concentration -4.0, 100 µM
[3] = 786-0, read-out: Percent Growth
[4] = KM-20L2, read-out: Percent Growth

With COc1ccc2[nH]c3c(C)c4c(c(C)c3c2c1)CN(C)C=C4 [Formula VII] the “Percent Growth” value (MALME-3M; Log10 Concentration -5.0) was -31%, the “Percent Growth” value (MALME-3M; Log10 Concentration -6.0, 1 µM) was 55% and the “Percent Growth” value (MALME-3M; [1]) was 110%. For the same compound, the “Percent Growth” value (MALME-3M; Log10 Concentration -8.0) was 112%, the TGI (MALME-3M; PG=0) was 4.37 µM and the GI50 (MALME-3M; PG=+50) was 1.41 µM. For the same compound, the CC50 (MALME-3M; read-out: LC-50, PG=-50) was over 100 µM, the “Percent Growth” value (SK-MEL-28; [2]) was -75% and the “Percent Growth” value (SK-MEL-28; Log10 Concentration -5.0) was 4%. The “Percent Growth” value (SK-MEL-28; Log10 Concentration -6.0, 1 µM) was 91%, the “Percent Growth” value (SK-MEL-28; [1]) was 105% and the “Percent Growth” value (SK-MEL-28; Log10 Concentration -8.0) was 101%. For the same compound, the TGI (SK-MEL-28; PG=0) was 11.3 µM, the GI50 (SK-MEL-28; PG=+50) was 2.95 µM and the CC50 (SK-MEL-28; read-out: LC-50, PG=-50) was 48.6 µM. For the same compound, the “Percent Growth” value (XF 498; [2]) was -60%, the “Percent Growth” value (XF 498; Log10 Concentration -5.0) was -25% and the “Percent Growth” value (XF 498; Log10 Concentration -6.0, 1 µM) was 81%. For the same compound, the “Percent Growth” value (XF 498; [1]) was 140%, the “Percent Growth” value (XF 498; Log10 Concentration -8.0) was 174% and the TGI (XF 498; PG=0) was 5.82 µM. For the same compound, the GI50 (XF 498; PG=+50) was 1.97 µM, the CC50 (XF 498; read-out: LC-50, PG=-50) was 52.7 µM and the “Percent Growth” value (ACHN; [2]) was -4%. The “Percent Growth” value (ACHN; Log10 Concentration -5.0) was 79%, the “Percent Growth” value (ACHN; Log10 Concentration -6.0, 1 µM) was 102% and the “Percent Growth” value (ACHN; [1]) was 113%. For the same compound, the “Percent Growth” value (ACHN; Log10 Concentration -8.0) was 113%, the TGI (ACHN; PG=0) was 89.1 µM and the GI50 (ACHN; PG=+50) was 22.4 µM. For the same compound, the CC50 (ACHN; read-out: LC-50, PG=-50) was over 100 µM, the “Percent Growth” value (SF-295; [2]) was -51% and the “Percent Growth” value (SF-295; Log10 Concentration -5.0) was -30%. For the same compound, the “Percent Growth” value (SF-295; Log10 Concentration -6.0, 1 µM) was 11%, the “Percent Growth” value (SF-295; [1]) was 65% and the “Percent Growth” value (SF-295; Log10 Concentration -8.0) was 88%. For the same compound, the TGI (SF-295; PG=0) was 1.89 µM, the GI50 (SF-295; PG=+50) was 0.191 µM and the CC50 (SF-295; read-out: LC-50, PG=-50) was 89.5 µM. The “Percent Growth” value (SK-MEL-2; [2]) was -91%, the “Percent Growth” value (SK-MEL-2; Log10 Concentration -5.0) was -23% and the “Percent Growth” value (SK-MEL-2; Log10 Concentration -6.0, 1 µM) was 110%. The “Percent Growth” value (SK-MEL-2; [1]) was 137%, the “Percent Growth” value (SK-MEL-2; Log10 Concentration -8.0) was 125% and the TGI (SK-MEL-2; PG=0) was 6.69 µM. The GI50 (SK-MEL-2; PG=+50) was 2.83 µM, the CC50 (SK-MEL-2; read-out: LC-50, PG=-50) was 24.7 µM and the “Percent Growth” value (NCI-H460; [2]) was -71%. For the same compound, the “Percent Growth” value (NCI-H460; Log10 Concentration -6.0, 1 µM) was 67%, the “Percent Growth” value (NCI-H460; [1]) was 85% and the “Percent Growth” value (NCI-H460; Log10 Concentration -8.0) was 93%. It also gave a TGI (NCI-H460; PG=0) of 9.4 µM, a GI50 (NCI-H460; PG=+50) of 1.78 µM and a CC50 (NCI-H460; read-out: LC-50, PG=-50) of 49.5 µM. For the same compound, the “Percent Growth” value (OVCAR-5; [2]) was -10%, the “Percent Growth” value (OVCAR-5; Log10 Concentration -5.0) was 70% and the “Percent Growth” value (OVCAR-5; Log10 Concentration -6.0, 1 µM) was 119%. For the same compound, the “Percent Growth” value (OVCAR-5; [1]) was 136%, the “Percent Growth” value (OVCAR-5; Log10 Concentration -8.0) was 133% and the TGI (OVCAR-5; PG=0) was 75.5 µM. For the same compound, the GI50 (OVCAR-5; PG=+50) was 17.8 µM, the CC50 (OVCAR-5; read-out: LC-50, PG=-50) was over 100 µM and the “Percent Growth” value (UACC-62; [2]) was -44%. The “Percent Growth” value (UACC-62; Log10 Concentration -5.0) was 31%, the “Percent Growth” value (UACC-62; Log10 Concentration -6.0, 1 µM) was 88% and the “Percent Growth” value (UACC-62; [1]) was 118%. For the same compound, the “Percent Growth” value (UACC-62; Log10 Concentration -8.0) was 129%, the TGI (UACC-62; PG=0) was 26.1 µM and the GI50 (UACC-62; PG=+50) was 4.68 µM. The CC50 (UACC-62; read-out: LC-50, PG=-50) was over 100 µM, the “Percent Growth” value (M19-MEL; [2]) was -62% and the “Percent Growth” value (M19-MEL; Log10 Concentration -5.0) was -36%. For the same compound, the “Percent Growth” value (M19-MEL; Log10 Concentration -6.0, 1 µM) was 48%, the “Percent Growth” value (M19-MEL; [1]) was 95% and the “Percent Growth” value (M19-MEL; Log10 Concentration -8.0) was 117%. The TGI (M19-MEL; PG=0) was 3.7 µM, the GI50 (M19-MEL; PG=+50) was 0.899 µM and the CC50 (M19-MEL; read-out: LC-50, PG=-50) was 34.7 µM. For the same compound, the GI50 (786-0; 786-0) was 0.0408 µM, the CC50 (786-0; 786-0, read-out: LC-50) was 66.7 µM and the activity at 0.01 µM (786-0; [3]) was 69%. It also gave an activity at 0.1 µM (786-0; [3]) of 38%, an activity at 1 µM (786-0; [3]) of 3% and an activity at 10 µM (786-0; [3]) of -20%. The activity at 100 µM (786-0; [3]) was -56%, the IC (TGI) (786-0; 786-0, read-out: TGI) was 1.3 µM and the “Percent Growth” value (HL-60 (TB); [2]) was -43%. For the same compound, the “Percent Growth” value (HL-60 (TB); Log10 Concentration -5.0) was 93%, the “Percent Growth” value (HL-60 (TB); Log10 Concentration -6.0, 1 µM) was 121% and the “Percent Growth” value (HL-60 (TB); [1]) was 123%. The “Percent Growth” value (HL-60 (TB); Log10 Concentration -8.0) was 118%, the TGI (HL-60 (TB); PG=0) was 48.5 µM and the GI50 (HL-60 (TB); PG=+50) was 20.8 µM. The CC50 (HL-60 (TB); read-out: LC-50, PG=-50) was over 10000 µM, the “Percent Growth” value (SNB-19; [2]) was 1% and the “Percent Growth” value (SNB-19; Log10 Concentration -5.0) was 0%. For the same compound, the “Percent Growth” value (SNB-19; Log10 Concentration -6.0, 1 µM) was 16%, the “Percent Growth” value (SNB-19; [1]) was 84% and the “Percent Growth” value (SNB-19; Log10 Concentration -8.0) was 95%. It also gave a TGI (SNB-19; PG=0) of over 100 µM, a GI50 (SNB-19; PG=+50) of 0.318 µM and a CC50 (SNB-19; read-out: LC-50, PG=-50) of over 100 µM. For the same compound, the “Percent Growth” value (OVCAR-8; [2]) was -17%, the “Percent Growth” value (OVCAR-8; Log10 Concentration -5.0) was 5% and the “Percent Growth” value (OVCAR-8; Log10 Concentration -6.0, 1 µM) was 28%. The “Percent Growth” value (OVCAR-8; [1]) was 67%, the “Percent Growth” value (OVCAR-8; Log10 Concentration -8.0) was 72% and the TGI (OVCAR-8; PG=0) was 16.6 µM. It also gave a GI50 (OVCAR-8; PG=+50) of 0.274 µM, a CC50 (OVCAR-8; read-out: LC-50, PG=-50) of over 100 µM and a GI50 (KM20L2; KM-20L2) of 3.63 µM. It also gave a CC50 (KM20L2; KM-20L2, read-out: LC-50) of over 100 µM, an activity at 0.01 µM (KM20L2; [4]) of 106% and an activity at 0.1 µM (KM20L2; [4]) of 104%. For the same compound, the activity at 1 µM (KM20L2; [4]) was 82%, the activity at 10 µM (KM20L2; [4]) was 25% and the activity at 100 µM (KM20L2; [4]) was -34%. The IC (TGI) (KM20L2; KM-20L2, read-out: TGI) was 26.4 µM, the “Percent Growth” value (SK-MEL-5; [2]) was -53% and the “Percent Growth” value (SK-MEL-5; Log10 Concentration -5.0) was -53%. The “Percent Growth” value (SK-MEL-5; Log10 Concentration -6.0, 1 µM) was 75%, the “Percent Growth” value (SK-MEL-5; [1]) was 94% and the “Percent Growth” value (SK-MEL-5; Log10 Concentration -8.0) was 99%. For the same compound, the TGI (SK-MEL-5; PG=0) was 3.85 µM, the GI50 (SK-MEL-5; PG=+50) was 1.56 µM and the CC50 (SK-MEL-5; read-out: LC-50, PG=-50) was 9.49 µM.
